Data from US4889860A (Nova Pharmaceutical Corporation, priority 1987, dated 1989).

System: tail flick response
Assay: radiant heat tail flick analgesia in rats
Type: in vivo, rat
Description: The analgesic properties of the compounds prepared in accordance with Examples III and IV were evaluated in rats using the radiant heat and tail flick paradigm. […] Flick latencies in FIGS. 11-13 were determined at 30 minute intervals through 3.5 h and the data was expressed as a percentage of the maximum possible effect (% MPE). A 15 sec. cut-off latency was used to minimize tissue damage. The values shown are the mean values for 6 rats.
A 15 sec. cut-off latency was used to prevent tissue damage.
The analgesic properties of compounds XXII and XXIII were evaluated in rats using the writhing assay and tail flick paradigm. […] The writhing assay which uses a chemical stimulus to produce pain, is believed to be more sensitive to kappa agonist activity than other measures of analgesia which uses a heat stimulus (Dykstra, L.A. Behavioral Pharmacology: The Current Status, N.Y.: Allan R. Liss. Inc. 1985).

CN1CC[C@]23c4c5ccc(O)c4O[C@H]2[C@@H](O)C=C[C@H]3[C@H]1C5 [Morphine, morphine, reference compound]
ED50, tail flick analgesia (S.C., 30 min): 4.91 µmol/kg
dose producing approximately equal analgesia (S.C., tail flick, through 3.5 hr): ~10.5 µmol/kg
ED50, Antagonism of the Tail-Flick Response in the Rat (Table 7): 2.60 mg/kg
antagonism of tail-flick response to heat (rat): effectively antagonized the tail-flick response to a heat stimulus in the rat
